Source: patent EP2668952A2, “Aqueous formulations of bisphosphonates, vitamin D and benzyl alcohol suitable for subcutaneous or intramuscular use” (Romano, Paolo, priority 2012, dated 2013)

Tests used:
[1] = Particulate matter in water solutions of zoledronic acid and cholecalciferol with organic solvents; type: physicochemical; parameters: key: *: opalescent; **: turbid; ***: precipitate; conditions: zoledronic acid 5.0 mg/3ml, cholecalciferol 0.35 mg/3ml
Description: (§1) In order to assess the degree of water solubilization of bisphosphonates and vitamin D by addition of variable amounts of benzyl alcohol and other water mixable organic solvents, 2 mother solutions at concentration of 100 mg disodium clodronate or 5 mg zoledronic acid in 2 ml water for injection, examples of respectively high and low dose bisphosphonates, were prepared and buffered with sodium bicarbonate to pH 6.5.
(§2) Two-ml samples of both solutions with the two bisphosphonates mentioned above were then diluted with water to approx. 3 ml (3 samples: more precisely 2997 µl, 2991µl, and 2970 µl), to 2.7 ml (1 sample) and to 2.4 ml (1 sample).A mother solution containing cholecalciferol in benzyl alcohol or other water mixable organic solvents in a ratio of 0.35 mg : 3.0 mg respectively (11.67% w/w) was also prepared and 2 series of 5 samples of 3.35 mg of it were taken and kept as such (1 sample) or diluted with 6.0 mg, 27.0 mg, 297.0 and 597.0 mg respectively of the same solvent (4 samples).The 5 cholecalciferol solution samples were then added, under slow stirring, to the 5 solution samples of each bisphosphonate in the order, so as to give mixtures with solvent concentration of 0.1, 0.3, 1.0, 10.0 and 20.0% (w/v), left to stand for 10 minutes and then examined according to the microscopic particle count test or visually (an instrumental particle counter was unnecessary).
Table Vb: particulate matter in water solutions of zoledronic acid 5.0 mg/3ml and cholecalciferol 0.35 mg / 3ml, containing different % concentrations (w/v) of organic solvents.

[2] = Particulate matter in water solutions of disodium clodronate and cholecalciferol with organic solvents; type: physicochemical; parameters: key: *: opalescent; **: turbid; ***: precipitate; conditions: disodium clodronate 100 mg/3ml, cholecalciferol 0.35mg/3ml
Description: as §1, §2
Table Va: particulate matter in water solutions of disodium clodronate 100 mg/3ml and cholecalciferol 0.35mg / 3ml, containing different % concentrations (w/v) of organic solvents.

[3] = 10.0 % (w/v) solvent, count or visual symbol
[4] = 20.0 % (w/v) solvent, visual symbol
[5] = 10 % (w/v) solvent, count or visual symbol
[6] = 20 % (w/v) solvent, visual symbol

| Particulate matter ≥ 10µm per ml ([2]; 0.1 % (w/v) solvent) [per ml] | Particulate matter ≥ 10µm per ml ([2]; 0.3 % (w/v) solvent) [per ml] | Particulate matter ≥ 10µm per ml ([2]; 1.0 % (w/v) solvent) [per ml] | Particulate matter ≥ 10µm per ml [2, 5] | Particulate matter ≥ 10µm per ml [2, 6] | Compound | Particulate matter ≥ 10µm per ml ([1]; 0.1 % (w/v) solvent) [per ml] | Particulate matter ≥ 10µm per ml ([1]; 0.3 % (w/v) solvent) [per ml] | Particulate matter ≥ 10µm per ml ([1]; 1.0 % (w/v) solvent) [per ml] | Particulate matter ≥ 10µm per ml [1, 3] | Particulate matter ≥ 10µm per ml [1, 4] |
| --- | --- | --- | --- | --- | --- | --- | --- | --- | --- | --- |
| 75 | 23 | 48 | ** | *** | CCO [Ethanol] | 68 | 22 | 16 | * | ** |
| 83 | 74 | 56 | ** | *** | Sorbitane monoleate [Sorbitane monoleate (SPAN® 80)] |  |  |  |  |  |

| Compound | Particulate matter ≥ 10µm per ml ([2]; 0.1 % (w/v) solvent) [per ml] | Particulate matter ≥ 10µm per ml ([2]; 0.3 % (w/v) solvent) [per ml] | Particulate matter ≥ 10µm per ml ([2]; 1.0 % (w/v) solvent) [per ml] | Particulate matter ≥ 10µm per ml [2, 5] | Particulate matter ≥ 10µm per ml [2, 6] | Particulate matter ≥ 10µm per ml ([1]; 0.1 % (w/v) solvent) [per ml] | Particulate matter ≥ 10µm per ml ([1]; 0.3 % (w/v) solvent) [per ml] | Particulate matter ≥ 10µm per ml ([1]; 1.0 % (w/v) solvent) [per ml] | Particulate matter ≥ 10µm per ml [1, 3] | Particulate matter ≥ 10µm per ml [1, 4] |
| --- | --- | --- | --- | --- | --- | --- | --- | --- | --- | --- |
| OCc1ccccc1 [Benzyl alcohol] | 8 | 0 | 0 | 0 per ml | * | 10 | 0 | 0 | 0 per ml | * |
